The subject of this experiment is patients treated with Methadone in the START trial. Briefly: PK/PD Model 2 binning vs Methadone completion. In kind it is in vivo, human. The procedure: For the model analyses, models were developed that sort patients into one of three categories, Green (‘G’) Yellow (‘Y’) or Red (‘R’). Patients determined to be high risk for non-completion by the model are placed into the Red Bin. Patients at intermediate risk of non-completion are placed in the Yellow Bin, and for this study, Yellow Bin patients are treated the same as patients found to be at Low Risk of non-completion, or those who are placed in the Green Bin. Thus, the Green and Yellow bins are combined for analysis.
Three separate PK/PD Models were generated by combining the PK model with each of the three PD models separately as follows. For each PKPD model, the corresponding PD risk score was added to the raw PK score (bin). A total PD risk score that was negative, represents a reduction of the baseline PK score, while a total PD risk score that was positive represented an increase in the baseline PK score.
Samples from patients treated with Methadone in the START trial described in Example 1 above were used (N=352). […] Each model was tested as described below against Sample 1, Sample 2 and/or the Full Sample.
Pearson's product moment, Chi-square with Yates correction were calculated. Diagnostic tests, odds ratios, Pearson's product moment, Chi-square with Yates correction were calculated using MEDCALC and R version 3.3.1.

Setting [1] is: PK/PD Model 2, Full Sample, Green bin, Risk Score −2.2 to 1.
Setting [2] is: PK/PD Model 2, Full Sample, Red bin, Risk Score 2.7 to 4.7.
[3] abbreviates: PK/PD Model 2, Full Sample, Yellow bin, Risk Score 1.1 to 2.5.
Where [4] appears, read: PK/PD Model 2, Sample 1, Green bin, Risk Score −2.3 to 2.
Setting [5] is: PK/PD Model 2, Sample 1, Red bin, Risk Score 3.3 to 6.7.
Setting [6] is: PK/PD Model 2, Sample 1, Yellow bin, Risk Score 2.2 to 3.2.
[7] abbreviates: PK/PD Model 2, Sample 2, Green bin, Risk Score −2.2 to 1.
[8] abbreviates: PK/PD Model 2, Sample 2, Red bin, Risk Score 2.7 to 4.7.
Where [9] appears, read: PK/PD Model 2, Sample 2, Yellow bin, Risk Score 1.1 to 2.5.

Consider `CCC(=O)C(CC(C)N(C)C)(c1ccccc1)c1ccccc1` (stereo not drawn) [Methadone, methadone], for which the Completers came out at 167 under setting [1]; 60 under setting [2]; 80 under setting [3]; 88 under setting [4]; 27 under setting [5]; 41 under setting [6]. In addition, the Completers runs as follows: under setting [7], 92; under setting [8], 19; under setting [9], 48. The “Non Completers” value under setting [1] was 8; the “Non Completers” value under setting [2] came out at 20; the “Non Completers” value under setting [3] worked out at 17; the “Non Completers” value under setting [4] was found to be 3; the “Non Completers” value under setting [5] was determined as 8; the “Non Completers” value under setting [6] is 9. For the same compound, the “Non Completers” value reads like this: under setting [7], 2; under setting [8], 9; under setting [9], 6.

For the origin of these results see patent US20200024662A1, “METHODS FOR TREATING OPIOID ADDICTION” (ASSUREX HEALTH, INC., priority 2016, published 2020).
